Data on 19 compounds can be found in US20130252890A1, “6,7-DIHYDRO-5H-BENZO[7]ANNULENE DERIVATIVES, PROCESS FOR PREPARATION THEREOF, PHARMACEUTICAL PREPARATIONS COMPRISING THEM, AND THE USE THEREOF FOR PRODUCTION OF MEDICAMENTS” (BAYER INTELLECTUAL PROPERTY GMBH, priority 2010, published 2013).

The term IC50 denotes the concentration that inhibits the measured activity by half.

For the test, the target named is T1, oestrogen receptor (ER) (Homo sapiens, UniProt P03372).
T1 construct: These MVLN cells express, along with the functional oestrogen receptor (ER), a reporter construct; endogenous in cells; host or cells: MVLN cells (MCF7 derivative carrying a luciferase reporter construct)
T1 sequence (P03372 1-595): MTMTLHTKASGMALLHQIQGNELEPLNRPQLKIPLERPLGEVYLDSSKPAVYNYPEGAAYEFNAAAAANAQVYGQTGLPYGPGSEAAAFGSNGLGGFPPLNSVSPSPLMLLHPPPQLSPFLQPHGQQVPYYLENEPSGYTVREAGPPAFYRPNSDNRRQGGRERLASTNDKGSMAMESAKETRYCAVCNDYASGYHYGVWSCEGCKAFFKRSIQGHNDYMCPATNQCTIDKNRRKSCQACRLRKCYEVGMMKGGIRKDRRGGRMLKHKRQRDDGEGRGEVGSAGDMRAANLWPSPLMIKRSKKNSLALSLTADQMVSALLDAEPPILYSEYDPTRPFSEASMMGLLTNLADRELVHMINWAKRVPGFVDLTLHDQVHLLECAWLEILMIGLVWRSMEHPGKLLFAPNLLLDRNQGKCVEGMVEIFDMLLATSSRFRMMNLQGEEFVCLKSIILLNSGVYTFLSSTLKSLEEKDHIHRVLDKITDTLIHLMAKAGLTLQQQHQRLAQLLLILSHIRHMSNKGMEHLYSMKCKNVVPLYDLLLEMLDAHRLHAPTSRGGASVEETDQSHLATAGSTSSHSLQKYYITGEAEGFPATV
The test is described as follows: Anti-oestrogenic action in MVLN cells (inhibition of estradiol-induced luciferase). The following applies: inhibition of estradiol-induced luciferase signal, value of Ex. 44 is a mean value, read-out: Antioestrogenic action in vitro: MVLN transactivation antagonism IC50. In kind it is cell-based. From the text:
The anti-oestrogenic action of the claimed pharmacological compounds was investigated in so-called MVLN cells in vitro. MVLN cells are derivatives of the hormone-responsive MCF7 breast cancer cells known by a person skilled in the art. These MVLN cells express, along with the functional oestrogen receptor (ER), a reporter construct, which under ER-activation expresses luciferase. Determination of the activity of the induced luciferase permits a direct conclusion on the oestrogen properties of substances. To investigate the anti-oestrogenic properties of the pharmacological compounds, they were investigated in the presence of oestrogen for their potential for inhibiting the luciferase signal induced by estradiol. The claimed pharmacological test substances were investigated in MVLN cells for their anti-oestrogenic potential, as described (see Table 2).
For `CC(C)(O)CN(CCCCCCC1=C(c2ccc(F)c(F)c2)CCCc2cc(O)ccc21)CCC[S+]([O-])CCC(F)(F)F` (stereo not shown) [Example 26, 8-(3,4-Difluorophenyl)-9-{6-[(2-hydroxy-2-methylpropyl){3-[(3,3,3-trifluoropropyl)sulphinyl]propyl}amino]hexyl}-6,7-dihydro-5H-benzo[7]annulen-3-ol], the IC50 came out at 28 nM.
Consider `CC(C)(O)CN(CCCCCCC1=C(c2ccc(F)c(F)c2)CCCc2cc(O)ccc21)CCC[S+]([O-])CCCC(F)(F)C(F)(F)F` (stereo not shown) [Example 28, 8-(3,4-Difluorophenyl)-9-{6-[(2-hydroxy-2-methylpropyl){3-[(4,4,5,5,5-pentafluoropentyl)sulphinyl]propyl}amino]hexyl}-6,7-dihydro-5H-benzo[7]annulen-3-ol], for which the IC50 came to 9 nM.
The figure for `CC(C)(O)CN(CCCCCCC1=C(c2ccc(F)c(F)c2)CCCc2cc(O)ccc21)CCCS(=O)(=O)CCCC(F)(F)C(F)(F)F` [Example 29, 8-(3,4-Difluorophenyl)-9-{6-[(2-hydroxy-2-methylpropyl){3-[(4,4,5,5,5-pentafluoropentyl)sulphonyl]propyl}amino]hexyl}-6,7-dihydro-5H-benzo[7]annulen-3-ol] is 10 nM; for `CCN(CCCCCCC1=C(c2ccc(F)c(F)c2)CCCc2cc(O)ccc21)CCCS(=O)(=O)CCC(F)(F)F` [Example 30, 8-(3,4-Difluorophenyl)-9-[6-(ethyl{3-[(3,3,3-trifluoropropyl)sulphonyl]propyl}amino)hexyl]-6,7-dihydro-5H-benzo[7]annulen-3-ol] it is 88 nM.
As for `COCCN(CCCCCCC1=C(c2ccc(F)c(F)c2)CCCc2cc(O)ccc21)CCCS(=O)(=O)CCCC(F)(F)C(F)(F)F` [Example 31, 8-(3,4-Difluorophenyl)-9-{6-[(2-methoxyethyl){3-[(4,4,5,5,5-pentafluoropentyl)sulphonyl]propyl}amino]hexyl}-6,7-dihydro-5H-benzo[7]annulen-3-ol], the IC50 came to 16 nM.
Next, `COCCCN(CCCCCCC1=C(c2ccc(F)c(F)c2)CCCc2cc(O)ccc21)CCCS(=O)(=O)CCCC(F)(F)C(F)(F)F` [Example 32, 8-(3,4-Difluorophenyl)-9-{6-[(3-methoxypropyl){3-[(4,4,5,5,5-pentafluoropentyl)sulphonyl]propyl}amino]hexyl}-6,7-dihydro-5H-benzo[7]annulen-3-ol]: 33 nM.
For the compound `CN(CCCCCCC1=C(c2ccc(F)cc2)CCCc2c1ccc(O)c2F)CCCS(=O)(=O)CCCC(F)(F)C(F)(F)F` [Example 33, 4-Fluoro-8-(4-fluorophenyl)-9-[6-(methyl{3-[(4,4,5,5,5-pentafluoropentyl)sulphonyl]propyl}amino)hexyl]-6,7-dihydro-5H-benzo[7]annulen-3-ol], the IC50 stood at 11 nM.
Next, `CN(CCCCCCC1=C(c2ccc(F)cc2)CCCc2c1ccc(O)c2F)CCCS(=O)(=O)CCC(F)(F)C(F)(F)F` [Example 34, 4-Fluoro-8-(4-fluorophenyl)-9-[6-(methyl{3-[(3,3,4,4,4-pentafluorobutyl)sulphonyl]propyl}amino)hexyl]-6,7-dihydro-5H-benzo[7]annulen-3-ol]: 27 nM; `CN(CCCCCCC1=C(c2ccc(F)cc2)CCCc2c1ccc(O)c2F)CCCC[S+]([O-])CCCC(F)(F)C(F)(F)F` (stereo not shown) [Example 35, 4-Fluoro-8-(4-fluorophenyl)-9-[6-(methyl{4-[(4,4,5,5,5-pentafluoropentyl)sulphinyl]butyl}amino)hexyl]-6,7-dihydro-5H-benzo[7]annulen-3-ol]: 10 nM.
Next, `CN(CCCCCCC1=C(c2ccc(F)cc2)CCCc2c1ccc(O)c2F)CCC[S+]([O-])CCC(F)(F)F` (stereo not shown) [Example 36, 4-Fluoro-8-(4-fluorophenyl)-9-[6-(methyl{3-[(3,3,3-trifluoropropyl)sulphinyl]propyl}amino)hexyl]-6,7-dihydro-5H-benzo[7]annulen-3-ol]: 35 nM; `CN(CCCCCCC1=C(c2ccc(F)cc2)CCCc2c1ccc(O)c2F)CCCS(=O)(=O)CCC(F)(F)F` [Example 37, 4-Fluoro-8-(4-fluorophenyl)-9-[6-(methyl{3-[(3,3,3-trifluoropropyl)sulphonyl]propyl}amino)hexyl]-6,7-dihydro-5H-benzo[7]annulen-3-ol]: 53 nM; `CN(CCCCCCC1=C(c2ccc(F)cc2)CCCc2c1ccc(O)c2F)CCCS(=O)(=O)CCCC(F)(F)F` [Example 38, 4-Fluoro-8-(4-fluorophenyl)-9-[6-(methyl{3-[(4,4,4-trifluorobutyl)sulphonyl]propyl}amino)hexyl]-6,7-dihydro-5H-benzo[7]annulen-3-ol]: 27 nM.
The figure for `CN(CCCCCCC1=C(c2ccc(F)cc2)CCCc2c1ccc(O)c2F)CCCCS(=O)(=O)CCCC(F)(F)C(F)(F)F` [Example 39, 4-Fluoro-8-(4-fluorophenyl)-9-[6-(methyl{4-[(4,4,5,5,5-pentafluoropentyl)sulphonyl]butyl}amino)hexyl]-6,7-dihydro-5H-benzo[7]annulen-3-ol] is 8 nM; for `COCCN(CCCCCCC1=C(c2ccc(F)cc2)CCCc2c1ccc(O)c2F)CCCS(=O)(=O)CCCC(F)(F)C(F)(F)F` [Example 40, 4-Fluoro-8-(4-fluorophenyl)-9-{6-[(2-methoxyethyl){3-[(4,4,5,5,5-pentafluoropentyl)sulphonyl]propyl}amino]hexyl}-6,7-dihydro-5H-benzo[7]annulen-3-ol] it is 170 nM.
`COCCCN(CCCCCCC1=C(c2ccc(F)cc2)CCCc2c1ccc(O)c2F)CCCS(=O)(=O)CCCC(F)(F)C(F)(F)F` [Example 41, 4-Fluoro-8-(4-fluorophenyl)-9-{6-[(3-methoxypropyl){3-[(4,4,5,5,5-pentafluoropentyl)sulphonyl]propyl}amino]hexyl}-6,7-dihydro-5H-benzo[7]annulen-3-ol]: the IC50 came to 42 nM.
Next, `CN(CCCCCCC1=C(c2ccc(F)cc2)CCCc2c1ccc(O)c2F)CCC[S+]([O-])CCCC(F)(F)C(F)(F)F` (stereo not shown) [Example 42, 4-Fluoro-8-(4-fluorophenyl)-9-[6-(methyl{3-[(4,4,5,5,5-pentafluoropentyl)sulphinyl]propyl}amino)hexyl]-6,7-dihydro-5H-benzo[7]annulen-3-ol]: 13 nM; `CN(CCCCCCC1=C(c2ccc(F)cc2)CCCc2c1ccc(O)c2F)CCCCS(=O)(=O)CCCC(F)(F)C(F)(F)F` [Example 43, 4-Fluoro-8-(4-fluorophenyl)-9-[6-(methyl{4-[(4,4,5,5,5-pentafluoropentyl)sulphonyl]butyl}amino)hexyl]-6,7-dihydro-5H-benzo[7]annulen-3-ol]: 20 nM; `CN(CCCCCCC1=C(c2ccc(F)c(F)c2)CCCc2cc(O)ccc21)CCCCS(=O)(=O)CCC(F)(F)F` [Example 47, 8-(3,4-Difluorophenyl)-9-[6-(methyl{4-[(3,3,3-trifluoropropyl)sulphonyl]butyl}amino)hexyl]-6,7-dihydro-5H-benzo[7]annulen-3-ol]: 26 nM.
Next, `CN(CCCCCC1=C(c2ccc(F)cc2)CCCc2cc(O)ccc21)CCCCS(=O)(=O)CCCC(F)(F)F` [Example 49, 8-(4-Fluorophenyl)-9-[5-(methyl{4-[(4,4,4-trifluorobutyl)sulphonyl]butyl}amino)pentyl]-6,7-dihydro-5H-benzo[7]annulen-3-ol]: 181 nM.
